Source: US20100120886A1, “ARYL-SUBSTITUTED SULFONAMIDES FOR THE TREATMENT OF COGNITIVE OR FOOD INGESTION RELATED DISORDERS” (LABORATORIOS DEL DR. ESTEVE, S.A., priority 2007, published 2010)

Target: T1, 5HT6 human recombinant receptor (Homo sapiens, UniProt P50406)
T1 construct: purchased Receptor Biology; host or cells: HEK-293 cell membranes
Assay: Binding with Serotonin Receptor 5HT6 ([3H]-LSD radioligand, HEK-293 cell membranes)
Conditions: [3H]-LSD 2.7 nM, HEK-293 membranes; for Ki: non-linear regression EBDA/LIGAND; for inhibition at 0.01 µM: compound 10 nM; for inhibition at 0.01 µM / inhibition at 0.1 µM: 60 min, 37° C.; for inhibition at 0.1 µM: compound 100 nM
Description: Binding with Serotonin Receptor 5HT6
Cell membranes of HEK-293 cells expressing the 5HT6 human recombinant receptor were supplied by Receptor Biology. In said membranes the receptor concentration is 2.18 pmol/mg protein and the protein concentration is 9.17 mg/ml. The experimental protocol follows the method of B. L. Roth et al. [B. L. Roth, S. C. Craigo, M. S. Choudhary, A. Uluer, F. J. Monsma, Y. Shen, H. Y. Meltzer, D. R. Sibley: Binding of Typical and Atypical Antipsychotic Agents to 5-Hydroxytryptamine-6 and Hydroxytriptamine-7 Receptors. The Journal of Pharmacology and Experimental Therapeutics, 1994, 268, 1403] with slight changes. The commercial membrane is diluted (1:40 dilution) with the binding buffer: 50 mM Tris-HCl, 10 mM MgCl2, 0.5 mM EDTA (pH 7.4). The radioligand used is [^3H]-LSD at a concentration of 2.7 nM with a final volume of 200 μl. incubation is initiated by adding 100 μl of membrane suspension, (≈22.9 μg membrane protein), and is prolonged for 60 minutes at a temperature of 37° C. The incubation is ended by fast filtration in a Brandel Cell Harvester through fiber glass filters made by Schleicher & Schuell GF 3362 pretreated with a solution of polyethylenimine at 0.5%. The filters are washed three times with three milliliters of buffer Tris-HCl 50 mM pH 7.4. The filters are transferred to flasks and 5 ml of Ecoscint H liquid scintillation cocktail are added to each flask. The flasks are allowed to reach equilibrium for several hours before counting with a Wallac Winspectral 1414 scintillation counter. Non-specific binding is determined in the presence of 100 μM of serotonin. Tests were made in triplicate. The inhibition constants (Ki, nM) were calculated by non-linear regression analysis using the program EBDA/LIGAND [Munson and Rodbard, Analytical Biochemistry, 1980, 107, 220].

T1 sequence (P50406 whole entry): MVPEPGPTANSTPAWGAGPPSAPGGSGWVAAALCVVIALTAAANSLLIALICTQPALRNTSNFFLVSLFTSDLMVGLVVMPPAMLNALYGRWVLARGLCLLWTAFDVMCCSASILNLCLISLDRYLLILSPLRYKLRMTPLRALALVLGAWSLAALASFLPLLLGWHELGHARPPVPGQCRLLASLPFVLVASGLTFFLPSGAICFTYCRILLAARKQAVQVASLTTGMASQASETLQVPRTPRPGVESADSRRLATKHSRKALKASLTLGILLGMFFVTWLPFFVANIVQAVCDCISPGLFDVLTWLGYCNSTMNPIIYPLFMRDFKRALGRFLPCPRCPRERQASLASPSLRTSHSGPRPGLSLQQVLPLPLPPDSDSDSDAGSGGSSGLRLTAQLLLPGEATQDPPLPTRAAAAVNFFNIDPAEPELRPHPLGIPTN

Structure (SMILES): CNCCc1c[nH]c2ccc(NS(=O)(=O)c3ccc4c(Cl)cccc4c3)cc12 [Example 4, 5-Chloro-naphthalene-2-sulfonic acid [3-(2-methylamino-ethyl)-1H-indol-5-yl]-amide]
- Ki: 2.1 ± 1.3 nM
- inhibition at 0.01 µM: 64.9%
- inhibition at 0.1 µM: 73.5%

Structure (SMILES): CCNCCc1c[nH]c2ccc(NS(=O)(=O)c3ccc4c(Cl)cccc4c3)cc12 [Example 3, 5-Chloro-naphthalene-2-sulfonic acid [3-(2-ethylamino-ethyl)-1H-indol-5-yl]-amide]
- Ki: 2 nM
- inhibition at 0.01 µM: 60.1%
- inhibition at 0.1 µM: 82.9%

Structure (SMILES): CCNCCc1c[nH]c2ccc(NS(=O)(=O)c3cccc4ccccc34)cc12 [Example 1, Naphthalene-1-sulfonic acid [3-(2-ethylamino-ethyl)-1H-indol-5-yl]-amide]
- Ki: 3 nM

Structure (SMILES): NCCc1c[nH]c2ccc(NS(=O)(=O)c3ccc4c(Cl)cccc4c3)cc12 [Example 8, 5-Chloro-naphthalene-2-sulfonic acid [3-(2-amino-ethyl)-1H-indol-5-yl]-amide]
- Ki: 1.4 nM
- inhibition at 0.01 µM: 65.6%
- inhibition at 0.1 µM: 86.1%

Structure (SMILES): Cn1cc(CCN)c2cc(NS(=O)(=O)c3ccc4c(Cl)cccc4c3)ccc21 [Example 9, 5-Chloro-naphthalene-2-sulfonic acid [3-(2-amino-ethyl)-1-methyl-1H-indol-5-yl]-amide]
- inhibition at 0.01 µM: 34.1%
- inhibition at 0.1 µM: 78%

Structure (SMILES): CNCCc1c[nH]c2ccc(NS(=O)(=O)c3cccc4ccccc34)cc12 [Example 2, Naphthalene-1-sulfonic acid [3-(2-methylamino-ethyl)-1H-indol-5-yl]-amide]
- Ki: 2.9 nM
- inhibition at 0.01 µM: 83%
- inhibition at 0.1 µM: 91.2%

Structure (SMILES): NCCc1c[nH]c2ccc(NS(=O)(=O)c3cccc4ccccc34)cc12 [Example 5, Naphthalene-1-sulfonic acid [3-(2-amino-ethyl)-1H-indol-5-yl]-amide]
- Ki: 26.4 nM
- inhibition at 0.01 µM: 41.6%
- inhibition at 0.1 µM: 76.9%

Structure (SMILES): NCCc1c[nH]c2ccc(NS(=O)(=O)c3ccc4ccccc4c3)cc12 [Example 7, Naphthalene-2-sulfonic acid [3-(2-amino-ethyl)-1H-indol-5-yl]-amide]
- Ki: 7.1 ± 1.1 nM
- inhibition at 0.01 µM: 66%
- inhibition at 0.1 µM: 84.6%

Structure (SMILES): CNCCc1cn(C)c2ccc(NS(=O)(=O)c3ccc4c(Cl)cccc4c3)cc12 [Example 6, 5-Chloro-naphthalene-2-sulfonic acid [1-methyl-3-(2-methylamino-ethyl)-1H-indol-5-yl]-amide]
- inhibition at 0.01 µM: 39.7%
- inhibition at 0.1 µM: 79.8%
